According to ChEMBL document CHEMBL4229455, “Synthesis and anticancer activity of novel bisindolylhydroxymaleimide derivatives with potent GSK-3 kinase inhibition” (Bioorg Med Chem, 2018):

Legend:
Assay type in all cases: functional
MOLT-4 [1] = test: Cytotoxicity against human MOLT4 cells assessed as cell growth at 0.01 uM after 48 hrs by SRB assay relative to control; details: MOLT-4, 48 h, read-out: Activity
SNB-75 [2] = test: Cytotoxicity against human SNB75 cells assessed as cell growth at 0.01 uM after 48 hrs by SRB assay relative to control; details: SNB-75, 48 h, read-out: Activity
LOX IMVI [3] = test: Cytotoxicity against human LOXIMVI cells assessed as cell growth at 0.01 uM after 48 hrs by SRB assay relative to control; details: read-out: Activity
Malme-3M [4] = test: Cytotoxicity against human MALME-3M cells assessed as cell growth at 0.01 uM after 48 hrs by SRB assay relative to control; details: read-out: Activity
NCI/ADR-RES = test: Cytotoxicity against human NCI-ADR-RES cells assessed as cell growth at 0.01 uM after 48 hrs by SRB assay relative to control; details: read-out: Activity
RXF 393 = test: Cytotoxicity against human RXF393 cells assessed as cell growth at 0.01 uM after 48 hrs by SRB assay relative to control; details: RXF 393, 48 h, read-out: Activity
SN12C = test: Cytotoxicity against human SN12C cells assessed as cell growth at 0.01 uM after 48 hrs by SRB assay relative to control; details: read-out: Activity
PC-3 = test: Cytotoxicity against human PC3 cells assessed as cell growth at 0.01 uM after 48 hrs by SRB assay relative to control; details: PC-3, 48 h, read-out: Activity
MDA-MB-231 [5] = test: Cytotoxicity against human MDA-MB-231 cells assessed as cell growth at 0.01 uM after 48 hrs by SRB assay relative to control; details: MDA-MB-231, 48 h, read-out: Activity
CCRF-CEM = test: Cytotoxicity against human CCRF-CEM cells assessed as cell growth at 0.1 uM after 48 hrs by SRB assay relative to control; details: read-out: Activity
HL-60(TB) = test: Cytotoxicity against human HL-60(TB) cells assessed as cell growth at 0.1 uM after 48 hrs by SRB assay relative to control; details: HL-60, 48 h, read-out: Activity
KM12 = test: Cytotoxicity against human KM12 cells assessed as cell growth at 0.1 uM after 48 hrs by SRB assay relative to control; details: KM12, 48 h, read-out: Activity
SF-295 = test: Cytotoxicity against human SF295 cells assessed as cell growth at 0.1 uM after 48 hrs by SRB assay relative to control; details: SF-295, 48 h, read-out: Activity
SK-MEL-5 [6] = test: Cytotoxicity against human SK-MEL-5 cells assessed as cell growth at 0.1 uM after 48 hrs by SRB assay relative to control; details: SK-MEL-5, 48 h, read-out: Activity
OVCAR-5 [7] = test: Cytotoxicity against human OVCAR5 cells assessed as cell growth at 0.1 uM after 48 hrs by SRB assay relative to control; details: OVCAR-5, 48 h, read-out: Activity
BT-549 [8] = test: Cytotoxicity against human BT549 cells assessed as cell growth at 0.1 uM after 48 hrs by SRB assay relative to control; details: BT-549, 48 h, read-out: Activity
SR = test: Cytotoxicity against human SR cells assessed as cell growth at 1 uM after 48 hrs by SRB assay relative to control; details: read-out: Activity
NCI-H23 [9] = test: Cytotoxicity against human NCI-H23 cells assessed as cell growth at 1 uM after 48 hrs by SRB assay relative to control; details: NCI-H23, 48 h, read-out: Activity
NCI-H522 = test: Cytotoxicity against human NCI-H522 cells assessed as cell growth at 1 uM after 48 hrs by SRB assay relative to control; details: NCI-H522, 48 h, read-out: Activity
SW-620 = test: Cytotoxicity against human SW620 cells assessed as cell growth at 1 uM after 48 hrs by SRB assay relative to control; details: SW-620, 48 h, read-out: Activity
Malme-3M [10] = test: Cytotoxicity against human MALME-3M cells assessed as cell growth at 1 uM after 48 hrs by SRB assay relative to control; details: read-out: Activity
SK-MEL-28 = test: Cytotoxicity against human SK-MEL-28 cells assessed as cell growth at 1 uM after 48 hrs by SRB assay relative to control; details: SK-MEL-28, 48 h, read-out: Activity
OVCAR-3 = test: Cytotoxicity against human OVCAR3 cells assessed as cell growth at 1 uM after 48 hrs by SRB assay relative to control; details: OVCAR-3, 48 h, read-out: Activity
MDA-MB-231 [11] = test: Cytotoxicity against human MDA-MB-231 cells assessed as cell growth at 1 uM after 48 hrs by SRB assay relative to control; details: MDA-MB-231, 48 h, read-out: Activity
BT-549 [12] = test: Cytotoxicity against human BT549 cells assessed as cell growth at 1 uM after 48 hrs by SRB assay relative to control; details: BT-549, 48 h, read-out: Activity
T47D = test: Cytotoxicity against human T47D cells assessed as cell growth at 1 uM after 48 hrs by SRB assay relative to control; details: read-out: Activity
NCI-H226 = test: Cytotoxicity against human NCI-H226 cells assessed as cell growth at 100 uM after 48 hrs by SRB assay relative to control; details: NCI-H226, 48 h, read-out: Activity
NCI-H23 [13] = test: Cytotoxicity against human NCI-H23 cells assessed as cell growth at 100 uM after 48 hrs by SRB assay relative to control; details: NCI-H23, 48 h, read-out: Activity
NCI-H460 = test: Cytotoxicity against human NCI-H460 cells assessed as cell growth at 100 uM after 48 hrs by SRB assay relative to control; details: NCI-H460, 48 h, read-out: Activity
BT-549 [14] = test: Cytotoxicity against human BT549 cells assessed as cell growth at 100 uM after 48 hrs by SRB assay relative to control; details: BT-549, 48 h, read-out: Activity
MOLT-4 [15] = test: Cytotoxicity against human MOLT4 cells after 48 hrs by SRB assay; details: MOLT-4, 48 h; for CC50: read-out: LC50 (the source's name)
SF-539 = test: Cytotoxicity against human SF539 cells after 48 hrs by SRB assay; details: SF-539, 48 h
SNB-75 [16] = test: Cytotoxicity against human SNB75 cells after 48 hrs by SRB assay; details: SNB-75, 48 h; for CC50: read-out: LC50 (the source's name)
LOX IMVI [17] = test: Cytotoxicity against human LOXIMVI cells after 48 hrs by SRB assay
SK-MEL-5 [18] = test: Cytotoxicity against human SK-MEL-5 cells after 48 hrs by SRB assay; details: SK-MEL-5, 48 h; for CC50: read-out: LC50 (the source's name)
UACC-257 = test: Cytotoxicity against human UACC257 cells after 48 hrs by SRB assay; details: UACC-257, 48 h
OVCAR-5 [19] = test: Cytotoxicity against human OVCAR5 cells after 48 hrs by SRB assay; details: OVCAR-5, 48 h

SMILES: N#CCCCCCn1cc(C2=C(c3cn(CCCCCC#N)c4ccccc34)C(=O)N(O)C2=O)c2ccccc21
- growth at 0.01 µM (MOLT-4 [1]): 87%
- growth at 0.01 µM (SNB-75 [2]): 79%
- growth at 0.01 µM (LOX IMVI [3]): 94%
- growth at 0.01 µM (Malme-3M [4]): 100%
- growth at 0.01 µM (NCI/ADR-RES): 100%
- growth at 0.01 µM (RXF 393): 96%
- growth at 0.01 µM (SN12C): 97%
- growth at 0.01 µM (PC-3): 93%
- growth at 0.01 µM (MDA-MB-231 [5]): 96%
- growth at 0.1 µM (CCRF-CEM): 85%
- growth at 0.1 µM (HL-60(TB)): 89%
- growth at 0.1 µM (KM12): 97%
- growth at 0.1 µM (SF-295): 91%
- growth at 0.1 µM (SK-MEL-5 [6]): 99%
- growth at 0.1 µM (OVCAR-5 [7]): 89%
- growth at 0.1 µM (BT-549 [8]): 92%
- growth at 1 µM (SR): 114%
- growth at 1 µM (NCI-H23 [9]): 94%
- growth at 1 µM (NCI-H522): 85%
- growth at 1 µM (SW-620): 91%
- growth at 1 µM (Malme-3M [10]): 107%
- growth at 1 µM (SK-MEL-28): 103%
- growth at 1 µM (OVCAR-3): 101%
- growth at 1 µM (MDA-MB-231 [11]): 82%
- growth at 1 µM (BT-549 [12]): 89%
- growth at 1 µM (T47D): 89%
- growth at 100 µM (NCI-H226): -8%
- growth at 100 µM (NCI-H23 [13]): 1%
- growth at 100 µM (NCI-H460): -26%
- growth at 100 µM (BT-549 [14]): -26%
- GI50 (MOLT-4 [15]): 2.93 µM
- TGI (MOLT-4 [15]): > 100 µM
- CC50 (MOLT-4 [15]): > 100 µM
- GI50 (SF-539): 2.82 µM
- LC50 (SF-539): > 100 µM
- TGI (SF-539): 9.42 µM
- GI50 (SNB-75 [16]): 2.84 µM
- TGI (SNB-75 [16]): 20 µM
- CC50 (SNB-75 [16]): > 100 µM
- GI50 (LOX IMVI [17]): 2.53 µM
- LC50 (LOX IMVI [17]): > 100 µM
- TGI (LOX IMVI [17]): 48.1 µM
- GI50 (SK-MEL-5 [18]): 2.92 µM
- TGI (SK-MEL-5 [18]): 10.6 µM
- CC50 (SK-MEL-5 [18]): 42.8 µM
- GI50 (UACC-257): 12.1 µM
- LC50 (UACC-257): > 100 µM
- TGI (UACC-257): 55.6 µM
- GI50 (OVCAR-5 [19]): 38.4 µM
- LC50 (OVCAR-5 [19]): > 100 µM
- TGI (OVCAR-5 [19]): > 100 µM

SMILES: Cn1cc(C2=C(c3cn(C)c4ncccc34)C(=O)NC2=O)c2ccccc21
- growth at 0.01 µM (MOLT-4 [1]): 103%
- growth at 0.01 µM (SNB-75 [2]): 83%
- growth at 0.01 µM (LOX IMVI [3]): 101%
- growth at 0.01 µM (Malme-3M [4]): 109%
- growth at 0.01 µM (NCI/ADR-RES): 101%
- growth at 0.01 µM (RXF 393): 98%
- growth at 0.01 µM (SN12C): 89%
- growth at 0.01 µM (PC-3): 99%
- growth at 0.01 µM (MDA-MB-231 [5]): 99%
- growth at 0.1 µM (CCRF-CEM): 81%
- growth at 0.1 µM (HL-60(TB)): 99%
- growth at 0.1 µM (KM12): 102%
- growth at 0.1 µM (SF-295): 93%
- growth at 0.1 µM (SK-MEL-5 [6]): 101%
- growth at 0.1 µM (OVCAR-5 [7]): 102%
- growth at 0.1 µM (BT-549 [8]): 98%
- growth at 1 µM (SR): 51%
- growth at 1 µM (NCI-H23 [9]): 84%
- growth at 1 µM (NCI-H522): 93%
- growth at 1 µM (SW-620): 88%
- growth at 1 µM (Malme-3M [10]): 110%
- growth at 1 µM (SK-MEL-28): 90%
- growth at 1 µM (OVCAR-3): 98%
- growth at 1 µM (MDA-MB-231 [11]): 79%
- growth at 1 µM (BT-549 [12]): 85%
- growth at 1 µM (T47D): 74%
- growth at 100 µM (NCI-H226): -16%
- growth at 100 µM (NCI-H23 [13]): -40%
- growth at 100 µM (NCI-H460): -36%
- growth at 100 µM (BT-549 [14]): -30%
- GI50 (MOLT-4 [15]): 3.53 µM
- TGI (MOLT-4 [15]): 17.7 µM
- CC50 (MOLT-4 [15]): > 100 µM
- GI50 (SF-539): 2.09 µM
- TGI (SF-539): 5.85 µM
- GI50 (SNB-75 [16]): 0.291 µM
- TGI (SNB-75 [16]): 7.97 µM
- CC50 (SNB-75 [16]): 94.6 µM
- GI50 (LOX IMVI [17]): 2.61 µM
- TGI (LOX IMVI [17]): 30.2 µM
- GI50 (SK-MEL-5 [18]): 2.15 µM
- TGI (SK-MEL-5 [18]): 5.8 µM
- CC50 (SK-MEL-5 [18]): 21.8 µM
- GI50 (UACC-257): 6.32 µM
- TGI (UACC-257): 54.8 µM
- GI50 (OVCAR-5 [19]): 3.88 µM
- TGI (OVCAR-5 [19]): 29.1 µM
